Experimental data reported in PubChem BioAssay AID792 (PCMD, 2007).
Records with an inconclusive call do not appear. The source made the active and inactive calls. How the calls were made is not given here.

Molecular target: S. cerevisiae eIF2B mutant, luciferase reporter luminescence
Assay: potency on yeast eIF2B luminescence signal – S. cerevisiae, mutant, wild-type, growth, dose response (AID 792)
[1] = measured here: mutant yeast growth
[2] = S. cerevisiae wild-type, luminescence

| Compound | IC50 | IC50 [1] [µM] | IC50 [2] [µM] |
| --- | --- | --- | --- |
| CCOc1ccc(-n2cc(C(=O)N3CCC(C)CC3)c3cc(OC)c(OC)cc3c2=O)cc1 | > 100 µM (inactive) | > 100 |  |
| CN1C(=O)N(C)C(=O)C2(Cc3c(nc4ccccn4c3=O)N3CCc4ccccc4C32)C1=O (stereo not drawn) | > 100 µM (inactive) | > 100 |  |
| Nc1ccc2oc(CCc3ccccc3)nc2c1 | > 100 µM (inactive) | > 100 |  |
| Cc1ccc(C(=O)NCc2ccco2)cc1S(=O)(=O)Nc1cccc(C)c1C | > 100 µM (inactive) | > 100 |  |
| CN(C)S(=O)(=O)c1cccc(NC(=O)COC(=O)c2ccc(Br)o2)c1 | > 100 µM (inactive) | > 100 |  |
| CCCCN(C(=O)Cn1nnc2ccccc21)C(C(=O)NCCOC)c1ccccc1 (stereo not drawn) | > 100 µM (inactive) | > 100 |  |
| CC(=O)Nc1ccc(Oc2cc(C#N)c(C#N)cc2N2CCCCCC2)cc1 | > 100 µM (inactive) | > 100 |  |
| O=C(CC(Nc1ccccc1)C(=O)O)c1ccccc1 (stereo not drawn) | > 100 µM (inactive) | > 100 |  |
| COC(=O)C(NC(=O)c1ccco1)(Nc1nc(C)cs1)C(F)(F)F (stereo not drawn) | > 100 µM (inactive) | > 100 |  |
| COc1ccc2c(c1)CCc1c(C(=O)N3CC4(C)CC3CC(C)(C)C4)noc1-2 (stereo not drawn) | > 100 µM (inactive) | > 100 |  |
| CN1C(=O)c2ccccc2Sc2ccc(C(=O)N3CCC4(CC3)OCCO4)cc21 | > 100 µM (inactive) | > 100 |  |
| Cc1ccc(OCCCC(=O)Nc2ccc(S(=O)(=O)Nc3cc(C)on3)cc2)cc1 | > 100 µM (inactive) | > 100 |  |
| COc1ccc(NC(=O)C(=O)NCCN2CCN(C(=O)c3cccs3)CC2)cc1 | > 100 µM (inactive) | > 100 |  |
| O=C(Oc1ccc2c(c1)CCC2)N1CCOCC1 | > 100 µM (inactive) | > 100 |  |
| Cc1nn(-c2ccccc2)c(Cl)c1/C=N/Nc1ccc(S(=O)(=O)Nc2ccccc2C(=O)O)cc1[N+](=O)[O-] | > 100 µM (inactive) | > 100 |  |
| CCOP(=O)(C#CC(C)(C)C)C1(O)CCCCC1 (stereo not drawn) | > 100 µM (inactive) | > 100 |  |
| O=C(CCS(=O)CCC(=O)NCc1ccccc1)NCc1ccccc1 | > 100 µM (inactive) | > 100 |  |
| Cc1cccc2nc(CSc3nnc4ccccn34)cn12 | > 100 µM (inactive) | > 100 |  |
| CC(=O)NC(CCS(C)(=O)=O)C(=O)Nc1ccccc1Cl (stereo not drawn) | > 100 µM (inactive) | > 100 |  |
| O=C(NCc1ccc(F)cc1)c1c(O)c2cccc3c2n(c1=O)CCC3 | > 100 µM (inactive) | > 100 |  |
| COC(=O)c1cc(O)c(OCc2ccccc2)c(O)c1 | > 100 µM (inactive) | > 100 |  |
| Cc1nc(N2CCN(C(=O)c3ccco3)CC2)c2c3c(sc2n1)CCCC3 | > 100 µM (inactive) | > 100 |  |
| COC(=O)CC1Oc2ccccc2N(Cc2ccc(C)cc2)C1=O (stereo not drawn) | > 100 µM (inactive) | > 100 |  |
| CCN1CCN(c2cc(-c3ccccc3)nc3cc(-c4cccc(F)c4)nn23)CC1 | inactive | 8.98 | 6.87 |
| O=C(CSc1nc(-c2ccco2)cc(C(F)(F)F)n1)Nc1ccccc1C(F)(F)F | > 100 µM (inactive) | > 100 |  |
| CCCn1c(SCC(=O)Nc2nc3c(s2)CCCC3)nc2c1c(=O)n(C)c(=O)n2C | > 100 µM (inactive) | > 100 |  |
| C=CCn1c(COc2ccccc2F)nnc1SCC(=O)Nc1cc2oc3ccccc3c2cc1OC | > 100 µM (inactive) | > 100 |  |

| Compound | IC50 | IC50 [1] [µM] | IC50 [2] [µM] |
| --- | --- | --- | --- |
| O=C(c1ccccc1)N1CCN(C(=O)c2ccncc2)CC1 | > 100 µM (inactive) | > 100 |  |
| Cc1cnc(NC(=O)CN(C)S(=O)(=O)c2ccc(Cl)cc2)s1 | > 100 µM (inactive) | > 100 |  |
| CCN(CC(N)=O)S(=O)(=O)c1ccc(Br)cc1 | > 100 µM (inactive) | > 100 |  |
| CC(=O)Nc1ccc(C(=O)NC2CCCC2)cc1 | > 100 µM (inactive) | > 100 |  |
| COc1cc(S(=O)(=O)N(Cc2cccnc2)Cc2ccco2)ccc1-n1cnnn1 | > 100 µM (inactive) | > 100 | > 100 |
| O=C(CSc1nnc(-c2ccccn2)n1-c1ccccc1)Nc1ccc2c(c1)OCO2 | > 100 µM (inactive) | > 100 |  |
| COc1ccc(CC(=O)Nc2ccc(N3CCN(c4ccc(OC)cc4)CC3)c(C#N)c2)cc1 | > 100 µM (inactive) | > 100 |  |
| CCOC(=O)CSC1=Nc2ccccc2C2=NC(CC(=O)NCc3ccccc3)C(=O)N12 (stereo not drawn) | > 100 µM (inactive) | > 100 |  |
| COc1ccc(N(C(=O)c2ccco2)S(=O)(=O)c2cccs2)cc1 | > 100 µM (inactive) | > 100 |  |
| CCOC(=O)Cc1csc(NC(=O)CCc2ccc(S(=O)(=O)N3CCOCC3)cc2)n1 | > 100 µM (inactive) | > 100 |  |
| CCCCNS(=O)(=O)c1cccc(S(=O)(=O)N2CCCC2)c1 | > 100 µM (inactive) | > 100 |  |
| Fc1ccc(Nc2nc(Oc3ccc4c(c3)OCO4)nc(N3CCOCC3)n2)c(F)c1 | > 100 µM (inactive) | > 100 |  |
| CC1(C)Cc2c(c(=S)nc(-c3ccccc3)n2CCOCCO)CO1 | > 100 µM (inactive) | > 100 |  |
| CCN(CC)c1ccc(NC(=O)c2cccc(OC)c2)c(C)c1 | inactive | > 100 | > 100 |
| O=C1c2ccccc2C(=O)C1c1ccncc1 | inactive | > 100 | 17.9 |
| COc1ccc(NC(=O)N2CCc3ccccc32)cc1 | inactive | > 100 | 6.14 |
| O=C(c1ccc2c(c1)OCO2)N(c1ccc(F)cc1)C1C=CS(=O)(=O)C1 (stereo not drawn) | > 100 µM (inactive) | > 100 |  |
| CCC(CC)c1nnc(NC(=O)c2cccc(S(=O)(=O)N3CCc4ccccc43)c2)s1 | > 100 µM (inactive) | > 100 |  |
| CCOC(=O)C1(C)/C(=N/Nc2ccccc2)C(=O)C(=O)N1c1ccccc1 (stereo not drawn) | > 100 µM (inactive) | > 100 |  |
| COc1ccc(C2(C)NC(=O)N(CC(=O)Nc3ccc4c(c3)OCO4)C2=O)cc1OC (stereo not drawn) | > 100 µM (inactive) | > 100 |  |
| O=C(CSc1nccc(=O)[nH]1)N1CCCc2ccccc21 | > 100 µM (inactive) | > 100 |  |
| COc1cccc(C(=O)Nc2cccc(C(=O)N3CCOCC3)c2)c1 | > 100 µM (inactive) | > 100 |  |
| COc1ccccc1NC(=S)NNC(=O)c1ccccc1 | > 100 µM (inactive) | > 100 |  |
| c1ccc2c(c1)ncn2-c1ncnc2sc3c(c12)CCCC3 | > 100 µM (inactive) | > 100 |  |
| O=S(=O)(N1CCCCC1)N1CCCN(S(=O)(=O)N2CCCCC2)CC1 | > 100 µM (inactive) | > 100 |  |
| Cc1ccc2c(c1)N(CC(=O)NC1CCC(C)CC1)C(=O)CO2 (stereo not drawn) | > 100 µM (inactive) | > 100 |  |
| C=CCc1cccc(CNc2nc3ccccc3n2C(C)C)c1O | > 100 µM (inactive) | > 100 |  |

| Compound | IC50 | IC50 [1] [µM] | IC50 [2] [µM] |
| --- | --- | --- | --- |
| CC(C)C(NC(=O)c1ccccc1)C(=O)NC1=NCCS1 (stereo not drawn) | > 100 µM (inactive) | > 100 |  |
| COc1cc(-c2nn3c(-c4ccccn4)nnc3s2)cc(OC)c1OC | > 100 µM (inactive) | > 100 |  |
| CCOC(=O)C1=C(C)NC(SCc2cc(=O)[nH][nH]2)=C(C#N)C1c1cccs1 (stereo not drawn) | > 100 µM (inactive) | > 100 |  |
| CCC(=O)N(Cc1cc(=O)[nH]c2ccccc12)c1cccc(C)c1 | > 100 µM (inactive) | > 100 |  |
| Cc1ccccc1C(=O)Nc1ccccn1 | > 100 µM (inactive) | > 100 |  |
| Cc1cc(C)n(-c2cc(=O)n(C)c(=O)n2C)n1 | > 100 µM (inactive) | > 100 |  |
| c1ccc2c(c1)CNc1ccccc1O2 | > 100 µM (inactive) | > 100 |  |
| CCOC(=O)CSc1nncc2ccc(OC)c(OC)c12 | > 100 µM (inactive) | > 100 |  |
| O=C(NCCC1=CCCCC1)c1ccc(=O)oc1 | > 100 µM (inactive) | > 100 |  |
| CCC(C)N(C(=O)COC(=O)c1[nH]c(C)c(C(C)=O)c1C)C1CCS(=O)(=O)C1 (stereo not drawn) | > 100 µM (inactive) | > 100 |  |
| CCCCCOC(=O)Nc1nnc(CCC)s1 | > 100 µM (inactive) | > 100 |  |
| Cc1cc(/C([O-])=C(/C(=S)Nc2ccc(F)cc2)[n+]2ccccc2)c(C)n1-c1ccc(F)cc1 | > 100 µM (inactive) | > 100 |  |
| O=C1CNC(=O)N1Cc1ccc(Br)cc1 | > 100 µM (inactive) | > 100 |  |
| COCc1cc(=O)[nH]c(Nc2nc3ccc(C)cc3o2)n1 | > 100 µM (inactive) | > 100 |  |
| COc1ccc(C2C=C(c3ccccc3)Nc3nnnn32)cc1 (stereo not drawn) | > 100 µM (inactive) | > 100 |  |
| c1ccc(CCc2nc(-c3ccncc3)no2)cc1 | > 100 µM (inactive) | > 100 |  |
| COc1ccc(OC)c(NC(=O)CNC(=O)Cn2cnc3ccccc3c2=O)c1 | > 100 µM (inactive) | > 100 |  |
| CSc1ccccc1NC(=O)c1cc(-c2cccs2)on1 | > 100 µM (inactive) | > 100 |  |
| Cn1c(=O)cc(SCC(=O)NCCCN2CCOCC2)c2ccccc21 | > 100 µM (inactive) | > 100 |  |
| COc1ccc(C2SCC(=O)Nc3c2c(C)nn3C2CCOC(C)(C)C2)cc1 (stereo not drawn) | > 100 µM (inactive) | > 100 |  |
| COc1ccc(C2=CC(c3sccc3C)n3nnnc3N2)cc1 (stereo not drawn) | > 100 µM (inactive) | > 100 |  |
| COc1cc(C)nc(N2CCCC(C(=O)Nc3cccc(Cl)c3C)C2)n1 (stereo not drawn) | > 100 µM (inactive) | > 100 |  |
| Cc1cc(C)cc(NS(=O)(=O)c2ccc3[nH]c(=O)[nH]c3c2)c1 | > 100 µM (inactive) | > 100 |  |
| O=C(Nc1ccc(Cl)cn1)c1ccccc1F | > 100 µM (inactive) | > 100 |  |
| CCOC(=O)c1[nH]c2ccc(OC)cc2c1NC(=O)C(C)N1CCSCC1 (stereo not drawn) | > 100 µM (inactive) | > 100 |  |
